Source: ChEMBL document CHEMBL3774336, “Identification of spirooxindole and dibenzoxazepine motifs as potent mineralocorticoid receptor antagonists” (Bioorg Med Chem, 2016)

Assays:
[1] = target: Mineralocorticoid receptor (Homo sapiens, UniProt P08235, C808S); test: (§1) Agonist activity against 6xHis-MBP-fused human MR LBD domain (732 to 984 amino acid residues) C808S mutant expressed in Escherichia coli BL21(DE3) assessed as receptor activation after 16 hrs by luciferase assay
[2] = tested on: T1, Mineralocorticoid receptor (Homo sapiens), P08235 [C808S]; test: as §1
T1 sequence (whole entry): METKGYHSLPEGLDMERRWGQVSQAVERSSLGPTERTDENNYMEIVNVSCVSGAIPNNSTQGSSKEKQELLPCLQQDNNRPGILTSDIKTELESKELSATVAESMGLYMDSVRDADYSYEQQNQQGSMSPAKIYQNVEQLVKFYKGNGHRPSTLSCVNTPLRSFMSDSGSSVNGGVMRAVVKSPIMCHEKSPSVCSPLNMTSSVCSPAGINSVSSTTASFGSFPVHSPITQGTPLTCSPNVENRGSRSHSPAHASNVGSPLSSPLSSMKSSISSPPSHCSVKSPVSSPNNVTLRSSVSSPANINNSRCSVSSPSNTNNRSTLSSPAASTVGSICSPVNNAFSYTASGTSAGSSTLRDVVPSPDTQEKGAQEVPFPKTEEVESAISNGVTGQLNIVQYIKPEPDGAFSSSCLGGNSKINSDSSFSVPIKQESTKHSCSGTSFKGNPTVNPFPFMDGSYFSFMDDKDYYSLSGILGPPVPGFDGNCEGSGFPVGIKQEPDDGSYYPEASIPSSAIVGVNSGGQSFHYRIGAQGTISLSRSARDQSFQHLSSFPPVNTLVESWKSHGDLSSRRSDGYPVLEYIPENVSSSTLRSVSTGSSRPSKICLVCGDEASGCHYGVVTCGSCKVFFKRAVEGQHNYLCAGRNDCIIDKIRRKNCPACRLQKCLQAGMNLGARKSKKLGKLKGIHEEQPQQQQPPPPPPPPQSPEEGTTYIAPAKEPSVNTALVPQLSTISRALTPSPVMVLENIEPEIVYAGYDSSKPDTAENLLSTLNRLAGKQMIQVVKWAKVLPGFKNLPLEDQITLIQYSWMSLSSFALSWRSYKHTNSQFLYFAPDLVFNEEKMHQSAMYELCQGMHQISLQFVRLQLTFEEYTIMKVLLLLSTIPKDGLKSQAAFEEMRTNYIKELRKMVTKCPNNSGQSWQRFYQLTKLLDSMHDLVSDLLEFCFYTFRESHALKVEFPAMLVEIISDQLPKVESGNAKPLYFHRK

[3] = target: Histamine H1 receptor (Homo sapiens) (UniProt P35367); test: Inhibition of histamine H1 receptor (unknown origin) at 10 uM
Sequence of Histamine H1 receptor (Homo sapiens) (P35367 whole entry, the tested form may be a part): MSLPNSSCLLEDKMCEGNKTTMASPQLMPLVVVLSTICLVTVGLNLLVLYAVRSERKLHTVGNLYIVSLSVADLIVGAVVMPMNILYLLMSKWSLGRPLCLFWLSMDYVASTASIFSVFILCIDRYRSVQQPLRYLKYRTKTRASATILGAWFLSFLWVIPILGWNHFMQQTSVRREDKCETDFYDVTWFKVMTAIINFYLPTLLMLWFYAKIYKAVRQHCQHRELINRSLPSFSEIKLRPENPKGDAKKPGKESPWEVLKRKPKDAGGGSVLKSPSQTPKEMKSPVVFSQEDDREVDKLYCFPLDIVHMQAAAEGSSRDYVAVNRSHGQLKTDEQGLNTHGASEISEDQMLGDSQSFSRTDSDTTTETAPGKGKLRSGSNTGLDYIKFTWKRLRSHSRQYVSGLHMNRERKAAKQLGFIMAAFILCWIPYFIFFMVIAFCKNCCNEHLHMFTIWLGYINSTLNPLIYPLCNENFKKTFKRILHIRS

[4] = target: T2, Androgen receptor (Rattus norvegicus) (UniProt P15207); test: Inhibition of GST-tagged rat androgen receptor LBD domain expressed in insect cells at 10 uM by Gal4-based fluorescence polarization assay
T2 sequence (whole entry): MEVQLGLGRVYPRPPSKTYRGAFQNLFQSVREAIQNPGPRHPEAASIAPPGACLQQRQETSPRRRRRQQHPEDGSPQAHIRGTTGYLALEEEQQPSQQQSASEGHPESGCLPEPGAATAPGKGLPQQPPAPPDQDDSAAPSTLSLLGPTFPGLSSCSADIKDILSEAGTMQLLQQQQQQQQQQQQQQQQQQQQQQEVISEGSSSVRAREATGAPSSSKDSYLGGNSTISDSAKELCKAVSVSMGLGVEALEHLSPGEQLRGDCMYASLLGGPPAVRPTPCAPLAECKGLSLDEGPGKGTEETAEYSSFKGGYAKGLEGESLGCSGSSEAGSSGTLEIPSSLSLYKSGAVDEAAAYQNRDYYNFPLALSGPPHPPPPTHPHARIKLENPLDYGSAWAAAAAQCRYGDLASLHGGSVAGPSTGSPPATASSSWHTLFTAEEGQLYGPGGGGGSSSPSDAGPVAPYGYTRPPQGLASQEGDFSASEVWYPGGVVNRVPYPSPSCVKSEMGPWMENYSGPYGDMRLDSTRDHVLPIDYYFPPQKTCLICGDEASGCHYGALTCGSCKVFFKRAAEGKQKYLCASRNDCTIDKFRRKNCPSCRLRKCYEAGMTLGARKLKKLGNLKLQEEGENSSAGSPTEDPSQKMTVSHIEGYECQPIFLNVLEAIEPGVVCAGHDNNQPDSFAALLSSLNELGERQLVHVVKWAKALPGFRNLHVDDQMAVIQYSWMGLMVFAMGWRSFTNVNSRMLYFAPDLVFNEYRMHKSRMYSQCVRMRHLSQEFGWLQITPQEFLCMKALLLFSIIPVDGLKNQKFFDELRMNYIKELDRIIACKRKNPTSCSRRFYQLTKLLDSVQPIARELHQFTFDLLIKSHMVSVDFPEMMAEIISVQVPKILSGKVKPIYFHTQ

Cytochrome P450 2D6 = Cytochrome P450 2D6 (Homo sapiens, UniProt P10635); test: Inhibition of CYP2D6 (unknown origin); assay type: ADME
Sequence of Cytochrome P450 2D6 (P10635 whole entry): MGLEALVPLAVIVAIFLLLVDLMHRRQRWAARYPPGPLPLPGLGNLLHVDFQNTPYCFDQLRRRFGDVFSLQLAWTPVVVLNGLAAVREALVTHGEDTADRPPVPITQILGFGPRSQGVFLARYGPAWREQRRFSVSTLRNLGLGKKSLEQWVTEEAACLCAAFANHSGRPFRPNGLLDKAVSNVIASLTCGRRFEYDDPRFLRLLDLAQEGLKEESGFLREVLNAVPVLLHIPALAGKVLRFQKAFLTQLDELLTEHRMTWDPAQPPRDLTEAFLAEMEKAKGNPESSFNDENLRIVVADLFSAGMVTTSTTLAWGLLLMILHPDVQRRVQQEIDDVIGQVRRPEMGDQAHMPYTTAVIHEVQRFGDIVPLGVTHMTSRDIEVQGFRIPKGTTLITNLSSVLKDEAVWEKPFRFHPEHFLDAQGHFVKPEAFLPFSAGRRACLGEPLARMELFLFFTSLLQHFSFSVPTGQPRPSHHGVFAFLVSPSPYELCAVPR

Cytochrome P450 3A4 = Cytochrome P450 3A4 (Homo sapiens, UniProt P08684)
Sequence of Cytochrome P450 3A4 (P08684 whole entry, the tested form may be a part): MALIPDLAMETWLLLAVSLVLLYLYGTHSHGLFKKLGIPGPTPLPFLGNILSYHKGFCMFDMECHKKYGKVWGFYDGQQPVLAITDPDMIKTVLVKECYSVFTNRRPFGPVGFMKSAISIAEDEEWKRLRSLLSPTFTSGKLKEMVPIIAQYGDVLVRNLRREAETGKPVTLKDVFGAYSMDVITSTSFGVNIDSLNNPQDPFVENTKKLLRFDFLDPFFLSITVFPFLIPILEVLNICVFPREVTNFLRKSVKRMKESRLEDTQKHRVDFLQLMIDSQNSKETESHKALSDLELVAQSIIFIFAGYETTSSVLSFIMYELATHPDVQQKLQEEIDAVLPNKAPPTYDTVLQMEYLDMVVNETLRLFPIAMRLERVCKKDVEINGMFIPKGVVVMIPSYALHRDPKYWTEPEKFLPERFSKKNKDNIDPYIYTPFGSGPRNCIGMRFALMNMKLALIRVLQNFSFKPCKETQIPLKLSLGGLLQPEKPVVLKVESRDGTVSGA
Description: Inhibition of CYP3A4 (unknown origin)

[5] = target: T3, Estrogen receptor (Homo sapiens) (UniProt P03372); test: Inhibition of estrogen receptor (unknown origin) at 10 uM by Gal4-based luciferase assay
T3 sequence (whole entry): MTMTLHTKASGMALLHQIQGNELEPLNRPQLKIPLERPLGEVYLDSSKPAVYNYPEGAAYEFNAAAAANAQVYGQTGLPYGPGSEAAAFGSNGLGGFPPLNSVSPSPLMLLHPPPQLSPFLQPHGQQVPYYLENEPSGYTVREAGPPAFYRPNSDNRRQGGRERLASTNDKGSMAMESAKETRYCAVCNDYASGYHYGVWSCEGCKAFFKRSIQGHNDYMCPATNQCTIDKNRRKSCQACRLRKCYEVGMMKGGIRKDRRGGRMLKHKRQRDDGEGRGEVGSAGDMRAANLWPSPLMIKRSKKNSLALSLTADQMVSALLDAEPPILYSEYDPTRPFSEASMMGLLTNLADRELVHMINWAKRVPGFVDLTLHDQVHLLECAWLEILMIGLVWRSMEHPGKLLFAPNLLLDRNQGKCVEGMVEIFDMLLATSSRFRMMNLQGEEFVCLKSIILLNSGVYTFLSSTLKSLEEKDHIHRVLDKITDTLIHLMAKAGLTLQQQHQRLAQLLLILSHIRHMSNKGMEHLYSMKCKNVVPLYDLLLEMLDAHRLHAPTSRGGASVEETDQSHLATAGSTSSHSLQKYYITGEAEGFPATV

Cytochrome P450 2C9 = Cytochrome P450 2C9 (Homo sapiens, UniProt P11712); test: Inhibition of CYP2C9 (unknown origin); assay type: ADME
Sequence of Cytochrome P450 2C9 (P11712 whole entry): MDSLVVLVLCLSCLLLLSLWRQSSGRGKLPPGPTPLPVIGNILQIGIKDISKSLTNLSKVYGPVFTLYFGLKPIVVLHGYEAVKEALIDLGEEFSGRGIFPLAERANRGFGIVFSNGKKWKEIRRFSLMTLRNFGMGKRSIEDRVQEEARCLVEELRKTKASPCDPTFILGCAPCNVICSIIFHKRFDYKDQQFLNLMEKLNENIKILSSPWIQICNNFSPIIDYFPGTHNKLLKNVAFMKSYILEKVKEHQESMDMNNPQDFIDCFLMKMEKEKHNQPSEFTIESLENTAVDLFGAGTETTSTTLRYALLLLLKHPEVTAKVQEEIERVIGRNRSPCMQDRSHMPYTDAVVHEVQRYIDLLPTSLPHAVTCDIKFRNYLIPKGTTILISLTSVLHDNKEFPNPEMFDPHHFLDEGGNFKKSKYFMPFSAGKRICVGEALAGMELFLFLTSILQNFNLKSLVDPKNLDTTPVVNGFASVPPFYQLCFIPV

[6] = Half life of compound in rat liver microsomes; assay type: ADME

| Compound | EC50 [1] [µM] | Activity [2] [%] | inhibition [3] [%] | inhibition [4] [%] | IC50 (Cytochrome P450 2D6) [µM] | IC50 (Cytochrome P450 3A4) [µM] | inhibition [5] [%] | IC50 (Cytochrome P450 2C9) [µM] | half-life [6] [min] |
| --- | --- | --- | --- | --- | --- | --- | --- | --- | --- |
| O=C1COc2ccc(/C=C3\c4ccccc4COc4cc(F)ccc43)cc2N1 | 0.004 | 31 | 26 | 77 |  |  |  |  |  |
| CN1CCC2(CC1)C(=O)Nc1cc(/C=C3\c4ccccc4COc4cc(F)ccc43)ccc12 |  |  | 97 | < 40 | 7.62 | 7.04 | < 40 | 2.83 | 31 |
